Drawing on patent publication US10407425B2, “Indazole inhibitors of the Wnt signal pathway and therapeutic uses thereof” (Samumed, LLC, priority 2012, dated 2019), this text covers IC50 for 30 compounds.

In this experiment the test system is Wnt activity. The experiment in a line: Wnt activity reporter assay (SP5 promoter firefly luciferase in SW480 cells). Type of experiment: cell-based. The following applies: Homo sapiens; SW480 cells bearing SP5 promoter luciferase reporter; 24 h after compound addition; read-out: Wnt inhibition. The source says: The above synthesized compounds were screened using the assay procedure for Wnt activity described below.
Reporter cell lines can be generated by stably transducing cells of cancer cell lines (e.g., colon cancer) with a lentiviral construct that include a wnt-responsive promoter driving expression of the firefly luciferase gene.
Lentiviral constructs can be made in which the SP5 promoter, a promoter having eight TCF/LEF binding sites derived from the SP5 promoter, is linked upstream of the firefly luciferase gene. The lentiviral constructs can also include a hygromycin resistance gene as a selectable marker. The SP5 promoter construct can be used to transduce SW480 cells, a colon cancer cell line having a mutated APC gene that generates a truncated APC protein, leading to de-regulated accumulation of β-catenin.
Cultured SW480 cells bearing a reporter construct can be distributed at approximately 10,000 cells per well into 384 well multiwell plates. Compounds from a small molecule compound library can then be added to the wells in half-log dilutions using a three micromolar top concentration. A series of control wells for each cell type receive only buffer and compound solvent. Twenty-four hours after the addition of compound, reporter activity for luciferases can be assayed, for example, by addition of the BrightGlo luminescence reagent (Promega) and the Victor3 plate reader (Perkin Elmer). Readings can be normalized to DMSO only treated cells, and normalized activities can then be used in the IC50 calculations.
Take `c1cncc(-c2ccc3[nH]nc(-c4nc5c(-c6ccoc6)cncc5[nH]4)c3c2)c1` [Compound 315, 7-(Furan-3-yl)-2-(5-(pyridin-3-yl)-1H-indazol-3-yl)-3H-imidazo[4,5-c]pyridine]: the IC50 was 22 nM. With `FC1(F)CCN(Cc2cncc(-c3ccc4[nH]nc(-c5nc6c(-c7ccsc7)cncc6[nH]5)c4c3)c2)C1` [Compound 346, 2-(5-(5-((3,3-Difluoropyrrolidin-1-yl)methyl)pyridin-3-yl)-1H-indazol-3-yl)-7-(thiophen-3-yl)-3H-imidazo[4,5-c]pyridine], the IC50 was found to be 2 nM. To `CCCCC(=O)Nc1cncc(-c2ccc3[nH]nc(-c4nc5c(-c6ccoc6)cncc5[nH]4)c3c2)c1` [Compound 329, N-(5-(3-(7-(Furan-3-yl)-3H-imidazo[4,5-c]pyridin-2-yl)-1H-indazol-5-yl)pyridin-3-yl)pentanamide] belongs 4 nM. Consider `CCCC(=O)Nc1cncc(-c2ccc3[nH]nc(-c4nc5c(N6CCCCC6)cncc5[nH]4)c3c2)c1` [Compound 214, N-(5-(3-(7-(Piperidin-1-yl)-3H-imidazo[4,5-c]pyridin-2-yl)-1H-indazol-5-yl)pyridin-3-yl)butyramide], for which the IC50 was 42 nM.

With `c1cncc(-c2ccc3[nH]nc(-c4nc5c(N6CCOCC6)cncc5[nH]4)c3c2)c1` [Compound 6, 4-(2-(5-(pyridin-3-yl)-1H-indazol-3-yl)-3H-imidazo[4,5-c]pyridin-7-yl)morpholine], the IC50 lay within 10 to 13 nM. The value for `CC(C)C(=O)Nc1cncc(-c2ccc3[nH]nc(-c4nc5ccncc5[nH]4)c3c2)c1` [Compound 9, N-(5-(3-(3H-imidazo[4,5-c]pyridin-2-yl)-1H-indazol-5-yl)pyridin-3-yl)isobutyramide] was 400 to 630 nM; that for `CC(C)CC(=O)Nc1cncc(-c2ccc3[nH]nc(-c4nc5c(-c6cccs6)cncc5[nH]4)c3c2)c1` [Compound 397, 3-Methyl-N-(5-(3-(7-(thiophen-2-yl)-3H-imidazo[4,5-c]pyridin-2-yl)-1H-indazol-5-yl)pyridin-3-yl)butanamide] was 0.1 nM.

`CCC(=O)Nc1cncc(-c2ccc3[nH]nc(-c4nc5c(-c6ccsc6)cncc5[nH]4)c3c2)c1` [Compound 289, N-(5-(3-(7-(Thiophen-3-yl)-3H-imidazo[4,5-c]pyridin-2-yl)-1H-indazol-5-yl)pyridin-3-yl)propionamide]: the IC50 was found to be 2 nM. For the compound `O=C(Nc1cncc(-c2ccc3[nH]nc(-c4nc5c(-c6cccc(F)c6)cncc5[nH]4)c3c2)c1)C1CCCCC1` [Compound 94, N-(5-(3-(7-(3-Fluorophenyl)-3H-imidazo[4,5-c]pyridin-2-yl)-1H-indazol-5-yl)pyridin-3-yl)cyclohexanecarboxamide], the IC50 was 11 nM. To `c1ncc(-c2ccc3[nH]nc(-c4nc5c(N6CCCCC6)cncc5[nH]4)c3c2)cc1CN1CCCC1` [Compound 211, 7-(Piperidin-1-yl)-2-(5-(5-(pyrrolidin-1-ylmethyl)pyridin-3-yl)-1H-indazol-3-yl)-3H-imidazo[4,5-c]pyridine] belongs 420 nM; to `O=C(Nc1cncc(-c2ccc3[nH]nc(-c4nc5ccncc5[nH]4)c3c2)c1)c1ccccc1` [Compound 275, N-(5-(3-(3H-Imidazo[4,5-c]pyridin-2-yl)-1H-indazol-5-yl)pyridin-3-yl)benzamide], 141 nM; to `O=C(Nc1cncc(-c2ccc3[nH]nc(-c4nc5c(-c6ccc(F)cc6)cncc5[nH]4)c3c2)c1)c1ccccc1` [Compound 104, N-(5-(3-(7-(4-Fluorophenyl)-3H-imidazo[4,5-c]pyridin-2-yl)-1H-indazol-5-yl)pyridin-3-yl)benzamide], 7 nM. The value for `CCC(=O)Nc1cncc(-c2ccc3[nH]nc(-c4nc5c(-c6ccccn6)cncc5[nH]4)c3c2)c1` [Compound 174, N-(5-(3-(7-(Pyridin-2-yl)-3H-imidazo[4,5-c]pyridin-2-yl)-1H-indazol-5-yl)pyridin-3-yl)propionamide] was 3 nM. To `c1cncc(-c2ccc3[nH]nc(-c4nc5c(-c6cccnc6)cncc5[nH]4)c3c2)c1` [Compound 136, 7-(Pyridin-3-yl)-2-(5-(pyridin-3-yl)-1H-indazol-3-yl)-3H-imidazo[4,5-c]pyridine] belongs 35 nM; to `CN1CCN(c2cncc3[nH]c(-c4n[nH]c5ccc(-c6cncc(NC(=O)Cc7ccccc7)c6)cc45)nc23)CC1` [Compound 252, N-(5-(3-(7-(4-Methylpiperazin-1-yl)-3H-imidazo[4,5-c]pyridin-2-yl)-1H-indazol-5-yl)pyridin-3-yl)-2-phenylacetamide], 650 nM.

Turning to `CC(C)C(=O)Nc1cncc(-c2ccc3[nH]nc(-c4nc5c(N6CCN(C)CC6)cncc5[nH]4)c3c2)c1` [Compound 2, N-(5-(3-(7-(4-methylpiperazin-1-yl)-3H-imidazo[4,5-c]pyridin-2-yl)-1H-indazol-5-yl)pyridin-3-yl)isobutyramide], the IC50 is 125 to 146 nM. To `CC(C)CC(=O)Nc1cncc(-c2ccc3[nH]nc(-c4nc5c(-c6cc(F)cc(CNS(C)(=O)=O)c6)cncc5[nH]4)c3c2)c1` [Compound 373, N-(5-(3-(7-(3-Fluoro-5-(methylsulfonamidomethyl)phenyl)-3H-imidazo[4,5-c]pyridin-2-yl)-1H-indazol-5-yl)pyridin-3-yl)-3-methylbutanamide] belongs 5 nM; to `Cc1ccncc1-c1ccc2[nH]nc(-c3nc4c(-c5ccc(F)cc5)cncc4[nH]3)c2c1` [Compound 99, 7-(4-Fluorophenyl)-2-(5-(4-methylpyridin-3-yl)-1H-indazol-3-yl)-3H-imidazo[4,5-c]pyridine], over 5000 nM. Regarding `O=C(Nc1cncc(-c2ccc3[nH]nc(-c4nc5ccncc5[nH]4)c3c2)c1)C1CCCCC1` [Compound 286, N-(5-(3-(3H-Imidazo[4,5-c]pyridin-2-yl)-1H-indazol-5-yl)pyridin-3-yl)cyclohexanecarboxamide], the IC50 turned out to be 569 nM. To `CC(C)(C)C(=O)Nc1cncc(-c2ccc3[nH]nc(-c4nc5c(N6CCCCC6)cncc5[nH]4)c3c2)c1` [Compound 205, N-(5-(3-(7-(Piperidin-1-yl)-3H-imidazo[4,5-c]pyridin-2-yl)-1H-indazol-5-yl)pyridin-3-yl)pivalamide] belongs 41 nM; to `Fc1cccc(-c2cncc3[nH]c(-c4n[nH]c5ccc(-c6cccnc6)cc45)nc23)c1` [Compound 15, 7-(3-fluorophenyl)-2-(5-(pyridin-3-yl)-1H-indazol-3-yl)-3H-imidazo[4,5-c]pyridine], 10 to 25 nM.

For `CC(C)Nc1cncc(-c2ccc3[nH]nc(-c4nc5c(-c6ccccc6F)cncc5[nH]4)c3c2)c1` [Compound 124, 5-(3-(7-(2-Fluorophenyl)-3H-imidazo[4,5-c]pyridin-2-yl)-1H-indazol-5-yl)-N-isopropylpyridin-3-amine], the IC50 is 1 nM. To `O=C(Nc1cncc(-c2ccc3[nH]nc(-c4nc5c(-c6ccoc6)cncc5[nH]4)c3c2)c1)C1CC1` [Compound 330, N-(5-(3-(7-(Furan-3-yl)-3H-imidazo[4,5-c]pyridin-2-yl)-1H-indazol-5-yl)pyridin-3-yl)cyclopropanecarboxamide] belongs 739 nM.

Consider `c1ccc(-c2cncc3[nH]c(-c4n[nH]c5ccc(-c6cccnc6)cc45)nc23)nc1` [Compound 177, 7-(Pyridin-2-yl)-2-(5-(pyridin-3-yl)-1H-indazol-3-yl)-3H-imidazo[4,5-c]pyridine], for which the IC50 was 2 nM. In the case of `CN1CCN(c2cncc(-c3ccc4[nH]nc(-c5nc6ccncc6[nH]5)c4c3)c2)CC1` [Compound 7, 2-(5-(5-(4-methylpiperazin-1-yl)pyridin-3-yl)-1H-indazol-3-yl)-3H-imidazo[4,5-c]pyridine], the IC50 was in the range of 214 to 463 nM. With `O=C(Nc1cncc(-c2ccc3[nH]nc(-c4nc5c(-c6ccncc6)cncc5[nH]4)c3c2)c1)C1CCCC1` [Compound 170, N-(5-(3-(7-(Pyridin-4-yl)-3H-imidazo[4,5-c]pyridin-2-yl)-1H-indazol-5-yl)pyridin-3-yl)cyclopentanecarboxamide], the IC50 came out at 7000 nM.

With `c1cc(-c2cncc3[nH]c(-c4n[nH]c5ccc(-c6cncc(CN7CCCCC7)c6)cc45)nc23)cs1` [Compound 303, 2-(5-(5-(Piperidin-1-ylmethyl)pyridin-3-yl)-1H-indazol-3-yl)-7-(thiophen-3-yl)-3H-imidazo[4,5-c]pyridine], the IC50 stood at 1000 nM.

In the case of `CC(C)CC(=O)Nc1cncc(-c2ccc3[nH]nc(-c4nc5c(N6CCN(C)CC6)cncc5[nH]4)c3c2)c1` [Compound 1, 3-methyl-N-(5-(3-(7-(4-methylpiperazin-1-yl)-3H-imidazo[4,5-c]pyridin-2-yl)-1H-indazol-5-yl)pyridin-3-yl)butanamide], the IC50 lay in the range of 140 to 150 nM. To `Cc1ccncc1-c1ccc2[nH]nc(-c3nc4c(N5CCCCC5)cncc4[nH]3)c2c1` [Compound 202, 2-(5-(4-Methylpyridin-3-yl)-1H-indazol-3-yl)-7-(piperidin-1-yl)-3H-imidazo[4,5-c]pyridine] belongs 535 nM; to `CN(C)Cc1cncc(-c2ccc3[nH]nc(-c4nc5c(-c6ccsc6)cncc5[nH]4)c3c2)c1` [Compound 301, N,N-Dimethyl-1-(5-(3-(7-(thiophen-3-yl)-3H-imidazo[4,5-c]pyridin-2-yl)-1H-indazol-5-yl)pyridin-3-yl)methanamine], 69 nM.
